Here are results for one compound from patent US20130225611A1, “Compositions and Methods for Reducing Cancer Cell Proliferation and Modulating Importin-Beta Function” (THE REGENTS OF THE UNIVERSITY OF CALIFORNIA, priority 2011, published 2013).

For one assay, the system named is bovine tubulin. In words: pure tubulin polymerization and pelleting assay. The class given is biochemical. The following applies: 25 μM bovine tubulin, 5% DMSO, pelleting, SDS PAGE. The procedure:
(§1) Xenopus laevis egg extracts were prepared as described by Hannak et al. (2006) Nat. Protoc. 1:2305-2314. For in vitro spindle assembly, Xenopus laevis sperm DNA was added to egg extracts supplemented with rhodamine-labeled tubulin. Asters were formed by addition of 5% DMSO. DNA was stained with Hoechst dye. The formation of microtubule-based structures was assessed using epifluorescence microscopy after a 30-minute room temperature incubation. In vitro microtubule polymerization and pelleting assays were performed by incubating 25 μM bovine tubulin, 1 mM GTP, and 5% DMSO in BRB80 buffer (80 mM PIPES, 1 mM MgCl2, 1 mM EGTA, pH 6.8) at 37° C. for 30 minutes. Polymerized microtubules were pelleted through a sucrose cushion, resuspended, and analyzed by SDS PAGE.

The subject of assay [1] is HeLa cells. Put plainly: mitotic spindle defects in HeLa cells (tubulin and DNA staining). The class given is cell-based, human. The note with it: HeLa cells treated for one hour. The procedure:
To examine the consequences of importazole on mitosis, HeLa cells treated for one hour were fixed and stained for tubulin and chromosomes. […] Spindle positioning was not previously attributed to the Ran pathway and this phenotype may be a consequence of astral microtubule disruption by importazole.
Cells were fixed in 4% formaldehyde and 0.1% glutaraldehyde in PHEM (60 mM PIPES, 25 mM HEPES, 10 mM EGTA, 2 mM MgSO4) at 37° C. for 15 minutes followed by permeabilization with 0.1% triton X-100 for 2 minutes at room temperature. Cells were then washed and blocked (PHEM+5% FBS+0.2% saponin) and stained by standard techniques using the E7-A anti β tubulin antibody (Developmental Studies Hybridoma Bank) diluted 1:1000 and Hoechst dye.

Assay [2] concerns the target T1, RanGTP/importin-β interaction (Homo sapiens, UniProt Q14974).
T1 construct: made in house; host or cells: E. coli: BL21 (importin-β), SG13 (Ran)
Put plainly: RanGTP protection assay (RanGAP-stimulated hydrolysis). Format: biochemical. The following applies: 50 μM importazole. As for the experimental part:
For RanGTP protection assays, all steps were performed in buffer containing 50 mM HEPES pH 7.6 with 2.5 mM MgCl2. Loading the Ran with GTP: 40 nM Biotin labeled RCC1 was bound to streptavidin agarose resin for 30 min rotating at 4° C. The Biotin labeled RCC1 was a gift of D. Halpin. The beads were washed with fresh buffer to remove any free RCC1, and 16 μM nucleotide free Ran and 51 μM GTPγP^32 were added and Ran was allowed to load for 30 min at room temperature. The beads were then removed using a spin column, and the remaining supernatant was filtered through a Sephadex G-50 column to remove free GTPγP^32. The loaded Ran was then diluted to 1.6 μM for further use. Performing the assay: All reactions were performed in a final volume of 200 μL at and in buffer containing 50 mM HEPES pH 7.6 with 2.5 mM MgCl2. Importin-β was pre-incubated with either 0.5% DMSO or 50 μM importazole in 0.5% DMSO and 100 nM RanGTPγP^32 at room temperature. 1 μM RanGAP was added to start each reaction, and the reaction was allowed to proceed for 5 min before the reaction was stopped using 1 ml of a solution containing 7% charcoal, 10% ethanol, 0.1 M HCl, and 10 mM KH2PO4. The resulting solution was spun at 10,000 RPM for 2 min in a tabletop centrifuge to pellet the charcoal, and the resulting supernatant was removed and counted for three min per sample in a liquid scintillation counter.

Assay [3] deals with importin-β/RanGTP-mediated nuclear import. In words: nuclear import of GFP-NLS reporter in permeabilized HeLa cells. The class given is cell-based, human. The note with it: 100 μM importazole, permeabilized HeLa cells plus Xenopus egg extract. The procedure: Because importazole binds importin-β and affects the RanGTP/importin-β interaction, importazole was tested to determine whether it inhibits the nuclear import of any protein bearing a classical nuclear localization signal (NLS). This was first tested using permeabilized HeLa cells, in which nuclear import of a GFP-NLS reporter can be reconstituted in vitro. Digitonin-permeabilized cells were incubated with a GFP-NLS reporter plus Xenopus laevis egg extracts as a source of soluble transport factors including Ran, importin-α, and importin-β.
HeLa cells were permeabilized and treated with an import reporter and cytosol from Xenopus laevis […] as described by Adam et al. (1990) J. Cell Biol. 111:807-816.

Assay [4] has as its target T2, CFP-Ran and YFP-importin-β (Homo sapiens, UniProt Q14974).
T2 construct: made in house; host or cells: BL21 cells (E. coli)
Put plainly: pull-down of CFP-Ran with S-tagged YFP-importin-β. Format: binding. The following applies: importazole 200 μM. As for the experimental part: For pulldown experiments to detect interaction between CFP-Ran and YFP-importin-β, all reactions were performed in buffer consisting of PBS+2 mM MgCl2, 5% glycerol, 0.01% NP-40, and 1.0 mM DTT. Reaction buffer was combined with the following components in this order: CFP-Ran, RCC1, BSA, GDP or GTP, importazole or 100% DMSO, and YFP-importin-β, yielding the following final concentrations: CFP-Ran: 2.5 nM, RCC1: 20 nM, BSA: 0.1 mg/ml, GDP or GTP: 200 μM, importazole: 200 μM, […]: 5.0 nM. Reactions were incubated for 10 min at room temperature, […] of S-protein agarose was added, and then incubated for an additional 30 min on a rotator before pelleting the agarose at 3,000 rpm for 1 min. The supernatant was removed followed by three washes with […] reaction buffer. The S-protein pellet was resuspended in 15 μl of sodium dodecyl sulfate-polyacrylamide gel electrophoresis (SDS PAGE) sample buffer and boiled briefly. After spinning down the S-protein pellet, 10 μl of the sample was analyzed by SDS PAGE.

The next assay relates to microtubule asters. In words: DMSO-induced aster assembly in Xenopus egg extracts. The note with it: 5% DMSO. On the set-up: species or system Xenopus laevis. As for the experimental part:
as §1

Assay [5] relates to HeLa cells. In words: HeLa cell viability assay (CellTiter-Glo). Format: cell-based. The note with it: Homo sapiens, treatment over a 24-hour period. The procedure: For HeLa cell viability assays to obtain an IC50, 10,000 actively growing HeLa cells per well were transferred to opaque white 96 well tissue culture plates at a final volume of 100 μl per well in DMEM plus 4% fetal bovine serum and 1% penicillin/streptomycin. Cells were allowed to grow at 37° C. for 24 hours. Individual wells were then treated for 12 hours with one of the following conditions: 1% DMSO, 5, 10, 20, 30, 40, 50, 60, 75, 100 μM IPZ. Following this treatment, the media was replaced and cells were treated for another 12 hours under the same conditions. The plates were then allowed to equilibrate to room temperature for 30 min, after which 100 μl of room temperature CellTiter-Glo reagent from the Promega CellTiter-Glo Luminescent Cell Viability Assay kit was added to each well. Plates were shaken for 2 min, incubated at room temperature for 10 min, then read on a luminometer. The average background signal for the plate was subtracted from the value of each individual well, and the resulting values were normalized to the signal level of the DMSO containing well.

For `CC(Nc1nc(N2CCCC2)nc2ccccc12)c1ccccc1` (centres unmarked) [importazole, (1-phenyl-ethyl)-(2-pyrrolidin-1-yl-quinazolin-4-yl)-amine], the “polymerization of pure microtubules” value in the assay with bovine tubulin is “does not Affect Pure Microtubules”. Further, the “cells displaying off-center spindles” value with HeLa cells [1] is reported as “more than 40%”. In addition, the “defects in spindle assembly, chromosome alignment and spindle size” value in the assay with HeLa cells [1] (0 to 40 μM) was “dose-dependent defects”. Besides, in assay [2], the “effect on ability of importin-β to protect RanGTP from RanGAP-stimulated hydrolysis” value is “do not indicate that importazole disrupts the RanGTP/importin-β interaction”. In addition, in assay [3], the “nuclear import of GFP-NLS reporter” value is listed as “blocked import”. The “effect on binding of CFP-RanGTP and YFP-importin-β in pull-down assays” value in assay [4] was “did not obviously affect the binding of the two proteins”. In addition, in the assay with microtubule asters, the “formation of microtubule asters induced by DMSO in the extract” value is “did not impair the formation of microtubule asters”. In addition, in the assay with HeLa cells [5], the IC50 is roughly 22.5 µM.
